Test results as given in US11890288B2, “Sulfonamide or sulfinamide compound having effect of inducing BRD4 protein degradation and pharmaceutical use thereof” (MITSUBISHI TANABE PHARMA CORPORATION, priority 2020, dated 2024).

Experiments:
[1] = tested on: human prostate cancer LNCaP cells; assay: Cytotoxic action on LNCaP cells (WST-8, 96 hr); assay type: cell-based; conditions: 96 hr culture
In short: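 Cells in 10% FBS/RPMI1640 plated overnight at 37° C, 5% CO2, then exposed to compound (DMSO stock diluted in medium) for 96 hr. Viable cells measured by WST-8. IC50 = concentration giving 50% survival versus untreated, interpolated linearly between the two bracketing points.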

[2] = biological target: BRD4 protein (Homo sapiens (Human), UniProt O60885); assay: BRD4 protein degradation inducing action in LNCaP cells (immunofluorescence, 6 hr); assay type: cell-based; conditions: anti-BRD4 fluorescence intensity
In short: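 LNCaP cells in 10% FBS/RPMI1640 exposed to compound for 6 hr, fixed, permeabilized and immunostained for BRD4 with Alexa Fluor 546 secondary; fluorescence (ex 560, em 572 nm) read by imaging. DC50 = concentration giving 50% of untreated signal, interpolated linearly between the two bracketing points.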

DC50 [2] | Structure (SMILES) | IC50 [1]
0.024 nM | CCc1ccc(NS(=O)(=O)c2ccc([C@@H](C)NC(=O)c3ccc(-c4ccc(C5=N[C@@H](CC(=O)OC)c6nnc(C)n6-c6sc(C)c(C)c65)cc4)cc3)cc2)c2[nH]cc(C#N)c12 [Example Compound 127, methyl [(6S)-4-(4′-{[(1R)-1-{4-[(3-cyano-4-ethyl-1H-indol-7-yl)sulfamoyl]phenyl}ethyl]carbamoyl}[1,1′-biphenyl]-4-yl)-2,3,9-trimethyl-6H-thieno[3,2-f][1,2,4]triazolo[4,3-a][1,4]diazepin-6-yl]acetate] | 0.032 nM
0.13 nM | CCc1ccc(NS(=O)(=O)c2ccc(CNC(=O)c3ccc(-c4ccc(C5=N[C@@H](CC(=O)OC)c6nnc(C)n6-c6sc(C)c(C)c65)cc4)c(F)c3)cc2)c2[nH]cc(C#N)c12 [Example Compound 115, methyl [(6S)-4-{4′-[({4-[(3-cyano-4-ethyl-1H-indol-7-yl)sulfamoyl]phenyl}methyl)carbamoyl]-2′-fluoro[1,1′-biphenyl]-4-yl}-2,3,9-trimethyl-6H-thieno[3,2-f][1,2,4]triazolo[4,3-a][1,4]diazepin-6-yl]acetate] | 0.32 nM
0.13 nM | COC(=O)C[C@@H]1N=C(c2ccc(-c3ccc(C(=O)NCc4ccc(S(=O)(=O)Nc5ccc(C)c6c(C#N)c[nH]c56)cc4)c(C)c3)cc2)c2c(sc(C)c2C)-n2c(C)nnc21 [Example 50, methyl [(6S)-4-{4′-[({4-[(3-cyano-4-methyl-1H-indol-7-yl)sulfamoyl]phenyl}methyl)carbamoyl]-3′-methyl[1,1′-biphenyl]-4-yl}-2,3,9-trimethyl-6H-thieno[3,2-f][1,2,4]triazolo[4,3-a][1,4]diazepin-6-yl]acetate] | 0.23 nM
0.036 nM | COC(=O)C[C@@H]1N=C(c2ccc(-c3cnc(C(=O)NCCc4ccc(S(=O)(=O)Nc5ccc(C)c6c(C#N)c[nH]c56)cc4)cn3)cc2)c2c(sc(C)c2C)-n2c(C)nnc21 [Example 102, methyl [(6S)-4-(4-{5-[(2-{4-[(3-cyano-4-methyl-1H-indol-7-yl)sulfamoyl]phenyl}ethyl)carbamoyl]pyrazin-2-yl}phenyl)-2,3,9-trimethyl-6H-thieno[3,2-f][1,2,4]triazolo[4,3-a][1,4]diazepin-6-yl]acetate] | 0.071 nM
0.25 nM | COC(=O)C[C@@H]1N=C(c2ccc(-c3cc(F)c(C(=O)NCc4ccc(S(=O)(=O)Nc5ccc(C)c6c(C#N)c[nH]c56)cc4)cc3F)cc2)c2c(sc(C)c2C)-n2c(C)nnc21 [Example 82, methyl [(6S)-4-{4′-[({4-[(3-cyano-4-methyl-1H-indol-7-yl)sulfamoyl]phenyl}methyl)carbamoyl]-2′,5′-difluoro[1,1′-biphenyl]-4-yl}-2,3,9-trimethyl-6H-thieno[3,2-f][1,2,4]triazolo[4,3-a][1,4]diazepin-6-yl]acetate] | 0.27 nM
2.4 nM | COC(=O)C[C@@H]1N=C(c2ccc(-c3ccc(C(=O)NCc4ccc(S(=O)(=O)Nc5ccc(C)c6c(Cl)c[nH]c56)cc4)cc3)cc2)c2c(sc(C)c2C)-n2c(C)nnc21 [Example 8, methyl [(6S)-4-{4′-[({4-[(3-chloro-4-methyl-1H-indol-7-yl)sulfamoyl]phenyl}methyl)carbamoyl][1,1′-biphenyl]-4-yl}-2,3,9-trimethyl-6H-thieno[3,2-f][1,2,4]triazolo[4,3-a][1,4]diazepin-6-yl]acetate] | 2.8 nM
0.32 nM | Cc1sc2c(c1C)C(c1ccc(-c3ccc(C(=O)NCc4ccc(S(=O)(=O)Nc5ccc(C)c6c(C#N)c[nH]c56)cc4)c(F)c3F)cc1)=N[C@@H](CC(=O)OC(C)(C)C)c1nnc(C)n1-2 [Example Compound 138, t-butyl [(6S)-4-{4′-[({4-[(3-cyano-4-methyl-1H-indol-7-yl)sulfamoyl]phenyl}methyl)carbamoyl]-2′,3′-difluoro[1,1′-biphenyl]-4-yl}-2,3,9-trimethyl-6H-thieno[3,2-f][1,2,4]triazolo[4,3-a][1,4]diazepin-6-yl]acetate] | 0.77 nM
0.14 nM | CCc1ccc(NS(=O)(=O)c2ccc(CNC(=O)c3ccc(-c4ccc(C5=N[C@@H](CC(=O)OC)c6nnc(C)n6-c6sc(C)c(C)c65)cc4)c(F)c3F)cc2)c2[nH]cc(C#N)c12 [Example Compound 118, methyl [(6S)-4-{4′-[({4-[(3-cyano-4-ethyl-1H-indol-7-yl)sulfamoyl]phenyl}methyl)carbamoyl]-2′,3′-difluoro[1,1′-biphenyl]-4-yl}-2,3,9-trimethyl-6H-thieno[3,2-f][1,2,4]triazolo[4,3-a][1,4]diazepin-6-yl]acetate] | 0.32 nM
0.32 nM | COC(=O)C[C@@H]1N=C(c2ccc(-c3ccc(C(=O)NCc4ccc(S(=O)(=O)Nc5ccc(C)c6c(C#N)c[nH]c56)cc4)cc3C)cc2)c2c(sc(C)c2C)-n2c(C)nnc21 [Example 75, methyl [(6S)-4-{4′-[({4-[(3-cyano-4-methyl-1H-indol-7-yl)sulfamoyl]phenyl}methyl)carbamoyl]-2′-methyl[1,1′-biphenyl]-4-yl}-2,3,9-trimethyl-6H-thieno[3,2-f][1,2,4]triazolo[4,3-a][1,4]diazepin-6-yl]acetate] | 0.47 nM
0.31 nM | Cc1sc2c(c1C)C(c1ccc(-c3ccc(C(=O)N[C@H](C)c4ccc(S(=O)(=O)Nc5ccc(C)c6c(C#N)c[nH]c56)cc4)cc3)cc1)=N[C@@H](CC(=O)OC(C)(C)C)c1nnc(C)n1-2 [Example Compound 134, t-butyl [(6S)-4-(4′-{[(1R)-1-{4-[(3-cyano-4-methyl-1H-indol-7-yl)sulfamoyl]phenyl}ethyl]carbamoyl}[1,1′-biphenyl]-4-yl)-2,3,9-trimethyl-6H-thieno[3,2-f][1,2,4]triazolo[4,3-a][1,4]diazepin-6-yl]acetate] | 0.55 nM
0.64 nM | COC(=O)C[C@@H]1N=C(c2ccc(-c3ccc4cc(C(=O)NCc5ccc(S(=O)(=O)Nc6ccc(C)c7c(C#N)c[nH]c67)cc5)sc4c3)cc2)c2c(sc(C)c2C)-n2c(C)nnc21 [Example 62, methyl [(6S)-4-(4-{2-[({4-[(3-cyano-4-methyl-1H-indol-7-yl)sulfamoyl]phenyl}methyl)carbamoyl]-1-benzothiophen-6-yl}phenyl)-2,3,9-trimethyl-6H-thieno[3,2-f][1,2,4]triazolo[4,3-a][1,4]diazepin-6-yl]acetate] | 0.97 nM
0.039 nM | CCc1ccc(NS(=O)(=O)c2ccc(CCNC(=O)c3ccc(-c4ccc(C5=N[C@@H](CC(=O)OC)c6nnc(C)n6-c6sc(C)c(C)c65)cc4)cc3)cc2)c2[nH]cc(C#N)c12 [Example Compound 128, methyl [(6S)-4-{4′-[(2-{4-[(3-cyano-4-ethyl-1H-indol-7-yl)sulfamoyl]phenyl}ethyl)carbamoyl][1,1′-biphenyl]-4-yl}-2,3,9-trimethyl-6H-thieno[3,2-f][1,2,4]triazolo[4,3-a][1,4]diazepin-6-yl]acetate] | 0.074 nM
0.42 nM | Cc1sc2c(c1C)C(c1ccc(-c3ccc(C(=O)NCc4ccc(S(=O)(=O)Nc5ccc(C)c6c(C#N)c[nH]c56)cc4)cc3)cc1)=N[C@@H](C)c1nnc(C)n1-2 [Example 32, N-({4-[(3-cyano-4-methyl-1H-indol-7-yl)sulfamoyl]phenyl}methyl)-4′-[(6S)-2,3,6,9-tetramethyl-6H-thieno[3,2-f][1,2,4]triazolo[4,3-a][1,4]diazepin-4-yl][1,1′-biphenyl]-4-carboxamide] | 0.69 nM
1.6 nM | Cc1sc2c(c1C)C(c1ccc(-c3ccc(C(=O)NCc4ccc(S(=O)(=O)Nc5ccc(C)c6c(C#N)c[nH]c56)cc4)cc3Cl)cc1)=N[C@@H](CC(=O)OC(C)(C)C)c1nnc(C)n1-2 [Example Compound 143, t-butyl [(6S)-4-{2′-chloro-4′-[({4-[(3-cyano-4-methyl-1H-indol-7-yl)sulfamoyl]phenyl}methyl)carbamoyl][1,1′-biphenyl]-4-yl}-2,3,9-trimethyl-6H-thieno[3,2-f][1,2,4]triazolo[4,3-a][1,4]diazepin-6-yl]acetate] | 2.4 nM
0.036 nM | COC(=O)C[C@@H]1N=C(c2ccc(-c3cnc(C(=O)NCc4ccc(S(=O)(=O)Nc5ccc(C)c6c(C#N)c[nH]c56)cc4)cn3)cc2)c2c(sc(C)c2C)-n2c(C)nnc21 [Example 65, methyl [(6S)-4-(4-{5-[({4-[(3-cyano-4-methyl-1H-indol-7-yl)sulfamoyl]phenyl}methyl)carbamoyl]pyrazin-2-yl}phenyl)-2,3,9-trimethyl-6H-thieno[3,2-f][1,2,4]triazolo[4,3-a][1,4]diazepin-6-yl]acetate] | 0.071 nM
0.28 nM | CCc1ccc(NS(=O)(=O)c2ccc(CNC(=O)c3ccc(-c4ccc(C5=N[C@@H](CC(=O)OC)c6nnc(C)n6-c6sc(C)c(C)c65)cc4)cc3C)cc2)c2[nH]cc(C#N)c12 [Example Compound 114, methyl [(6S)-4-{4′-[({4-[(3-cyano-4-ethyl-1H-indol-7-yl)sulfamoyl]phenyl}methyl)carbamoyl]-3′-methyl[1,1′-biphenyl]-4-yl}-2,3,9-trimethyl-6H-thieno[3,2-f][1,2,4]triazolo[4,3-a][1,4]diazepin-6-yl]acetate] | 0.34 nM
0.059 nM | COC(=O)C[C@@H]1N=C(c2ccc(-c3ccc(C(=O)N[C@H](C)c4ccc(S(=O)(=O)Nc5ccc(C)c6c(C#N)c[nH]c56)cc4)c(C)c3)cc2)c2c(sc(C)c2C)-n2c(C)nnc21 [Example 86, methyl [(6S)-4-(4′-{[(1R)-1-{4-[(3-cyano-4-methyl-1H-indol-7-yl)sulfamoyl]phenyl}ethyl]carbamoyl}-3′-methyl[1,1′-biphenyl]-4-yl)-2,3,9-trimethyl-6H-thieno[3,2-f][1,2,4]triazolo[4,3-a][1,4]diazepin-6-yl]acetate] | 0.35 nM
